Patent US10730884B2, “Substituted indole compound derivatives as dengue viral replication inhibitors” (Janssen Pharmaceuticals, Inc., priority 2016, dated 2020)

How the values were obtained:
[1] = test system: DENV-1 strain TC974#666; test: Tetravalent RT-qPCR assay, serotype 1; type: cell-based, Dengue virus; settings: for EC50: Dengue virus, DENV1, Vero, 72 h, RT-qPCR serotype 1 TC974#666, Protocol A, Vero cells, day 3, read-out: EC50; for SI: RT-qPCR serotype 1 TC974#666
Protocol: (§1) The antiviral activity of the compounds of the invention was tested against DENV-1 strain TC974#666 (NCPV), DENV-2 strain 16681, DENV-3 strain H87 (NCPV) and DENV-4 strain H241 (NCPV) in a RT-qPCR assay. Therefore, Vero cells were infected with either DENV-1, or -2, or -3, or -4 in the presence or absence of test compounds. At day 3 post-infection, the cells were lysed and cell lysates were used to prepare cDNA of both a viral target (the 3′UTR of DENV; Table 2) and a cellular reference gene (β-actin, Table 2). Subsequently, a duplex real time PCR was performed on a Lightcycler480 instrument. The generated Cp value is inversely proportional to the amount of RNA expression of these targets. Inhibition of DENV replication by a test compound result in a shift of Cp's for the 3′UTR gene. On the other hand, if a test compound is toxic to the cells, a similar effect on β-actin expression will be observed. The comparative ΔΔCp method is used to calculate EC50, which is based on the relative gene expression of the target gene (3′UTR) normalized with the cellular housekeeping gene (β-actin). In addition, CC50 values are determined based on the Cp values acquired for the housekeeping gene β-actin.
(§2) The culture medium consisted of minimal essential medium supplemented with 2% of heat-inactivated fetal calf serum, 0.04% gentamycin (50 mg/mL) and 2 mM of L-glutamine. Vero cells, obtained from ECACC, were suspended in culture medium and 75 μL/well was added in 96-well plates (10000 cells/well), which already contain the antiviral compounds. […] In addition, each plate contains wells which are assigned as virus controls (containing cells and virus in the absence of compound) and cell controls (containing cells in the absence of virus and compound). Once the cells were added in the plates, the plates were incubated in a fully humidified incubator (37° C., 5% CO2) until the next day. Dengue viruses serotype-1, 2, 3 and 4 were diluted in order to obtain a Cp of ˜22-24 in the assay. Therefore, 25 μL of virus suspension was added to all the wells containing test compound and to the wells assigned as virus control. In parallel, 25 μL of culture medium was added to the cell controls. Next, the plates were incubated for 3 days in a fully humidified incubator (37° C., 5% CO2). After 3 days, the supernatant was removed from the wells and the cells were washed twice with ice-cold PBS (˜100 μL). The cell pellets within the 96-well plates were stored at −80° C. for at least 1 day. Next, RNA was extracted using the Cells-to-CT™ lysis kit, according to the manufacturer's guideline (Life Technologies). The cell lysates can be stored at −80° C. or immediately used in the reverse transcription step.
(§3) In preparation of the reverse transcription step, mix A (table 3A) was prepared and 7.57 μL/well was dispensed in a 96-well plate. After addition of 5 μL of the cell lysates, a five minute denaturation step at 75° C. was performed (table 3B). Afterwards, 7.43 μL of mix B was added (table 3C) and the reverse transcription step was initiated (table 3D) to generate cDNA.
(§4) Finally, a RT-qPCR mix was prepared, mix C (table 4A), and 22.02 μL/well was dispensed in 96-well LightCycler qPCR plates to which 3 μL of cDNA was added and the qPCR was performed according to the conditions in table 4B on a LightCycler 480.
(§5) Using the LightCycler software and an in-house LIMS system, dose response curves for each compound were calculated and the half maximal effective concentration (EC50) and the half maximal cytotoxic concentration (CC50) were determined (Tables 5-8).

[2] = test system: DENV-3 strain H87; test: Tetravalent RT-qPCR assay, serotype 3; type: cell-based, Dengue virus; settings: for EC50: Dengue virus, DENV3, Vero, 72 h, RT-qPCR serotype 3 H87, Protocol A, Vero cells, day 3, read-out: EC50; for SI: RT-qPCR serotype 3 H87
Protocol: as §1, §2, §3, §4, §5

[3] = test system: Vero cells; settings: African green monkey
[4] = test system: DENV-4 strain H241; test: Tetravalent RT-qPCR assay, serotype 4; type: cell-based, Dengue virus; settings: for EC50: Dengue virus, DENV4, Vero, 72 h, RT-qPCR serotype 4 H241, Protocol A, Vero cells, day 3; for SI: RT-qPCR serotype 4 H241
Protocol: as §1, §2, §3, §4, §5

[5] = test system: DENV-2 strain 16681; test: Tetravalent RT-qPCR assay, serotype 2; type: cell-based, Dengue virus; settings: for EC50: Dengue virus, DENV2, Vero, 72 h, RT-qPCR serotype 2 16681, Protocol A, Vero cells, day 3; for SI: RT-qPCR serotype 2 16681
Protocol: as §1, §2, §3, §4, §5

[6] = test system: DENV-2 16681 strain; test: DENV-2 antiviral assay (eGFP-labeled virus, Vero cells); type: cell-based, Dengue virus; settings: for EC50: DENV-2 16681 eGFP, Vero cells, MOI 0.5, 3 days; for SI: SI=CC50/EC50, DENV-2 antiviral assay
Protocol: The antiviral activity of all the compounds of the invention was tested against the DENV-2 16681 strain which was labeled with enhanced green fluorescent protein (eGPF). The culture medium consists of minimal essential medium supplemented with 2% of heat-inactivated fetal calf serum, 0.04% gentamycin (50 mg/mL) and 2 mM of L-glutamine. Vero cells, obtained from ECACC, were suspended in culture medium and 25 μL was added to 384-well plates (2500 cells/well), which already contain the antiviral compounds. Typically, these plates contain a 5-fold serial dilution of 9 dilution steps of the test compound at 200 times the final concentration in 100% DMSO (200 nL). […] Finally, each plate contains wells which are assigned as virus controls (containing cells and virus in the absence of compound), cell controls (containing cells in the absence of virus and compound) and medium controls (containing medium in the absence of cells, virus and compounds). To the wells assigned as medium control, 25 μL of culture medium was added instead of Vero cells. Once the cells were added to the plates, the plates were incubated for 30 minutes at room temperature to allow the cells to distribute evenly within the wells. Next, the plates were incubated in a fully humidified incubator (37° C., 5% CO2) until the next day. Then, DENV-2 strain 16681, labeled with eGFP, was added at a multiplicity of infection (MOI) of 0.5. Therefore, 15 μL of virus suspension was added to all the wells containing test compound and to the wells assigned as virus control. In parallel, 15 μL of culture medium was added to the medium and cell controls. Next, the plates were incubated for 3 days in a fully humidified incubator (37° C., 5% CO2). At the day of the read out, the eGFP fluorescence was measured using an automated fluorescence microscope at 488 nm (blue laser). Using an in-house LIMS system, inhibition dose response curves for each compound were calculated and the half maximal effective concentration (EC50) was determined. Therefore, the percent inhibition (I) for every test concentration is calculated using the following formula: I=100*([…])/(SVC−SCC); ST, SCC and SVC are the amount of eGFP signal in the test compound, cell control and virus control wells, respectively. The EC50 represents the concentration of a compound at which the virus replication is inhibited with 50%, as measured by a 50% reduction of the eGFP fluorescent intensity compared to the virus control. The EC50 is calculated using linear interpolation (Table 1).

[7] = in vitro; settings: African green monkey
[8] = in vitro; type: cell-based; settings: African green monkey, CC50
Protocol: as §1, §2, §5

| SMILES | EC50 [1] [nM] | SI [1] | EC50 [2] [nM] | SI [2] | CC50 [3] [nM] | EC50 [4] [nM] | SI [4] | EC50 [5] [nM] | SI [5] | EC50 [6] [nM] | SI [6] | CC50 [7] [nM] | CC50 at 3 days [8] [nM] |
| --- | --- | --- | --- | --- | --- | --- | --- | --- | --- | --- | --- | --- | --- |
| COc1cc(NC(C(=O)c2c[nH]c3cc4c(cc23)CCO4)c2ccc(Cl)cc2OC)cc(OCCO)c1 (single isomer, unassigned) [Compound 10B] | 3.2 | 3340 | 22 | 316 | 9500 | 110 | >29 | 0.4 | 23600 | 0.32 | 19700 | – | – |
| COc1cc(NC(C(=O)c2c[nH]c3cc(F)c(C)cc23)c2ccc(F)cc2OC)cc(OCCO)c1 (single isomer, unassigned) [Compound 3B] | – | – | – | – | 8000 | – | – | – | – | 250 | 31 | – | – |
| COc1cc(NC(C(=O)c2c[nH]c3ccc(C)cc23)c2ccc(F)cc2OC)cc(OCCO)c1 (single isomer, unassigned) [Compound 5A] | 7 | 1430 | 50 | 207 | – | 270 | 21 | 2.7 | 4290 | 2.5 | 2910 | 5800 | 10000 |
| [2H]C(Nc1cc(OC)cc(OCCO)c1)(C(=O)c1c[nH]c2cc(OC)c(C)cc12)c1ccc(Cl)cc1OC (single isomer, unassigned) [Compound 14B-D] | – | – | – | – | 6000 | – | – | – | – | 110 | 52 | – | – |
| COc1cc(NC(C(=O)c2c[nH]c3cc4c(cc23)CCO4)c2ccc(F)cc2OC)cc(OCCO)c1 (single isomer, unassigned) [Compound 7B] | – | – | – | – | 12000 | – | – | – | – | 630 | 19 | – | – |
| COc1cc(NC(C(=O)c2c[nH]c3ccc(S(F)(F)(F)(F)F)cc23)c2ccc(Cl)cc2OC)cc(OCCO)c1 (single isomer, unassigned) [Compound 15B] | – | – | – | – | 5800 | – | – | – | – | 13 | 460 | – | – |
| COc1cc(NC(C(=O)c2c[nH]c3c4c(ccc23)OCC4)c2ccc(Cl)cc2OC)cc(OCCO)c1 (single isomer, unassigned) [Compound 11B] | – | – | – | – | 8200 | – | – | – | – | 170 | 49 | – | – |
